In brackets after ≈: the same amount, converted by molar mass. Several values for one entry are separate records, joined by “and”; a condition that tells them apart may be missing. Identical values can stand only once.
How the values were obtained:
HIV-1RF [1] = experiment: Post-exposure assay: compounds added after HIV-1 infection of CEM-SS cells, cell viability; type: cell-based; conditions: Human immunodeficiency virus 1, CEM-SS, read-out: EC50
Method: (§1) The effects of pre- and post-infection PI treatment on CEM-SS toxicity were assessed. […] Cell toxicity was monitored six days after infection using XTT reagent. In the post-exposure assay, test compounds were added to cells 0, 24, 48, or 72 h after HIV-1 infection, and cell viability was measured six days post-infection.

HIV-1 virions = experiment: Infectivity of HIV-1 virions from treated cells on naive CEM-SS cells; type: cell-based
Method: In concert with p24 analysis, cell supernatants collected from cells exposed to test compounds at 8, 16, or 24 hours post-infection were used to infect naïve CEM-SS cells. Cell viability was measured six days post-infection as a measure of virus infectivity (Table 5).

HIV-1RF [2] = experiment: p24 levels after single high MOI HIV-1RF infection of CEM-SS cells, time of addition; type: cell-based
Method: The cytoprotective effect against HIV of the PEG-protease inhibitor conjugates was evaluated during a single round of high multiplicity of infection (“MOI”) HIV-1 infection in CEM-SS cells. CEM-SS cells were incubated for one hour with a single high MOI dose of HIV-1RF. Cells were washed to remove free virus, then test compounds were added to cells at 0, 2, 4, 6, 8, 16, or 24 hours after HIV-1 infection. To monitor viral replication, cell supernatants were analyzed at 30 hours post-infection for levels of the HIV capsid protein p24 (FIG. 1). […] Nevirapine inhibited viral replication at 1 μM when added to cells up to four hours post-infection, and at 10 μM when added up to eight hours post-infection.

CEM-SS cells = experiment: Post-exposure assay: toxicity in CEM-SS cells; conditions: human
Method: as §1

HIV-1RF [3] = experiment: Pre-exposure assay: CEM-SS cells treated before HIV-1RF infection, cell viability; type: cell-based; conditions: for EC50: Human immunodeficiency virus 1, CEM-SS, read-out: EC50
Method: as §1

HIV-1 HT/92/599 = experiment: HIV-1 reverse transcriptase activity after infection of fresh human PBMCs; type: cell-based; conditions: read-out: PBMC/HIV-1HT/92/599 EC50 ± SD; seven days, reverse transcriptase activity
Method: (§2) Fresh human peripheral blood mononuclear cells (PBMCs) obtained from a commercial source were purified following centrifugation using a Ficoll-Hypaque density gradient. Viable cells were induced to proliferate in the presence of PHA-P and recombinant human IL-2 for 72 hours. […] Cell supernatant containing HIV-1 viral was incubated for 90 minutes at 37° C. with a reaction mixture containing EGTA, Triton X-100, Tris (pH 7.4), DTT, MgCl2, poly rA, oligo dT, and tritiated thymidine triphosphate (TTP). Incorporation of TTP into DNA was monitored by spotting the reaction mixture onto a DEAE filter mat, followed by washes with 5% phosphate buffer, distilled water, and 70% ethanol, and subsequent drying of the mat. Radioactivity was measured using a Wallac 1450 Microbeta Trilux liquid scintillation counter using Opti-Fluor O. Test compound-associated toxicity was measured in PBMCs cultured for seven days in the absence of virus using XTT reagent. […] TI was calculated as TC50/EC50.

PBMCs = experiment: Toxicity in PBMCs cultured without virus (XTT); conditions: seven days, absence of virus, XTT
Method: as §2, with “mat.” for “mat. Radioactivity was measured using a Wallac 1450 Microbeta Trilux liquid scintillation counter using Opti-Fluor O. Test compound-associated toxicity was measured in PBMCs cultured for seven days in the absence of virus using XTT reagent.”

[4] = tested on: human liver microsomal proteins; experiment: Microsomal protein binding by equilibrium dialysis; type: in vitro ADME; conditions: human liver microsomes, 3 μM, fraction unbound
Method: PEGylated protease inhibitors were evaluated for their propensity to be bound by proteins in normal human plasma or in human liver microsome preparations using equilibrium dialysis analysis. For microsomal protein binding, test compound (final concentration=3 μM) was diluted into either buffer alone or buffer containing human liver microsomes. The protein-free and microsome-containing solutions were then added to either side of an equilibrium dialysis system and allowed to reach equilibrium at 37° C. The concentration of compound on both sides of the membrane at equilibrium was quantified by LC-MS/MS, and the fraction of compound that remains unbound (Fu) is calculated.

human plasma proteins = experiment: Plasma protein binding by equilibrium dialysis, human plasma; type: in vitro ADME; conditions: human plasma, 5 μM, fraction unbound
Method: In assays to estimate binding of test compounds to plasma proteins, test compound solutions (5 μM) are prepared in buffer and species-specific plasma (final DMSO concentration 0.5%). The plasma-containing solution is added to one side of the membrane of an equilibrium dialysis system, and the plasma-free is added to the other side. Dialysis was allowed to reach equilibrium by incubation for two hours at 37° C. The concentration of compound on both sides of the membrane was measured using LC-MS/MS.

HIV-1RF [5] = experiment: Anti-HIV cytoprotection in CEM-SS cells infected with HIV-1RF (XTT); type: cell-based; conditions: six days, XTT; read-out: CEM-SS/HIV-1RF EC50 ± SD
Method: To evaluate whether conjugated protease inhibitors retain the ability to protect against HIV-1 infection, CEM-SS cells infected with the RF strain of HIV-1 were treated with test compounds for six days, and then cell viability was monitored using the tetrazolium dye XTT. […] A value for Therapeutic Index (TI) was calculated as TC50/EC50.

[6] = Metabolic stability in human liver microsomes; conditions: human liver microsomes, 3 μM
Method: The human liver microsome-mediated biotransformation of PEG-PI compounds was determined by monitoring the loss of the substrate as a function of time. […] Test compounds (3 μM final concentration) were preincubated with pooled (male and female) human liver microsomes (0.5 mg/mL final protein concentration) in buffer (0.1M phosphate buffer, pH 7.4) at 37° C. Reactions were initiated by the addition of NADPH (1 mM final concentration), and allowed to continue for 0, 5, 15, 30, and 45 minutes. […] Sample supernatants are analyzed by liquid chromatography-tandem mass spectrometry.

Caco-2 cells = experiment: Bi-directional permeability in Caco-2 monolayers; conditions: Caco-2 monolayers
Method: Absorption properties of various compounds were measured using bi-directional permeability assays in Caco-2 cells. […] The efflux ratio is calculated as the ratio of the Papp(B→A)/Papp(A→B).

[7] = drug addition 0 h post-infection
[8] = drug addition 24 h post-infection
[9] = drug addition 48 h post-infection
[10] = drug addition 72 h post-infection

Question: For `COc1cc(-c2ccc(/N=N/c3ccc4c(S(=O)(=O)O)cc(S(=O)(=O)O)c(N)c4c3O)c(OC)c2)ccc1/N=N/c1ccc2c(S(=O)(=O)O)cc(S(=O)(=O)O)c(N)c2c1O` [Chicago Sky Blue], which EC50 (HIV-1RF [1]; [7]) is on record?
Answer: 1.84 µg/mL

Question: And the EC50 (HIV-1RF [1]; [8])?
Answer: > 10 µg/mL

Question: What about the EC50 (HIV-1RF [1]; [9]) of the same molecule?
Answer: > 10 µg/mL

Question: And the EC50 (HIV-1RF [1]; [10])?
Answer: > 10 µg/mL

Question: What about the “Percent Infectivity of HIV-1 Virions in comparison to virus-alone control” value (from here on “Percent Infectivity of HIV-1 Virions”) (HIV-1 virions; 0.5 μg/mL, added 8 h post-infection) of the same molecule?
Answer: 100.0%

Question: What about the “Percent Infectivity of HIV-1 Virions” value (HIV-1 virions; 0.5 μg/mL, added 16 h post-infection) of the same molecule?
Answer: 177.8%

Question: And the “Percent Infectivity of HIV-1 Virions” value (HIV-1 virions; 0.5 μg/mL, added 24 h post-infection)?
Answer: 266.4%

Question: And the “Percent Infectivity of HIV-1 Virions” value (HIV-1 virions; 5 μg/mL, added 8 h post-infection)?
Answer: 100.0%

Question: What about the “Percent Infectivity of HIV-1 Virions” value (HIV-1 virions; 5 μg/mL, added 16 h post-infection) of the same molecule?
Answer: 331.2%

Question: And the “Percent Infectivity of HIV-1 Virions” value (HIV-1 virions; 5 μg/mL, added 24 h post-infection)?
Answer: 100.0%

Question: What about the “Percent Infectivity of HIV-1 Virions” value (HIV-1 virions; 50 μg/mL, added 8 h post-infection) of the same molecule?
Answer: 100.0%

Question: What about the “Percent Infectivity of HIV-1 Virions” value (HIV-1 virions; 50 μg/mL, added 16 h post-infection) of the same molecule?
Answer: 562.3%

Question: What about the “Percent Infectivity of HIV-1 Virions” value (HIV-1 virions; 50 μg/mL, added 24 h post-infection) of the same molecule?
Answer: 100.0%

Question: What about the “effect on p24 levels” value (HIV-1RF [2]; added at any time after infection, even at 50 μg/mL) of the same molecule?
Answer: did not affect p24 levels

Question: And the TC50 (CEM-SS cells; 3 days)?
Answer: 5.6 µg/mL (≈ 6.19 µM)

Question: What about the TC50 (CEM-SS cells; 4 days) of the same molecule?
Answer: 5.5 µg/mL (≈ 6.08 µM)

Question: What about the TC50 (CEM-SS cells; 5 days) of the same molecule?
Answer: 4.9 µg/mL (≈ 5.42 µM)

Question: What about the TC50 (CEM-SS cells; 6 days) of the same molecule?
Answer: 8.2 µg/mL (≈ 9.06 µM)

Question: What about the EC50 (HIV-1RF [3]; exposure 2 h pre-infection) of the same molecule?
Answer: > 10 µg/mL

Question: What about the EC50 (HIV-1RF [3]; exposure 8 h pre-infection) of the same molecule?
Answer: > 10 µg/mL

Question: What about the EC50 (HIV-1RF [3]; exposure 24 h pre-infection) of the same molecule?
Answer: > 10 µg/mL

Question: And the “antiviral activity after pre-treatment of cells” value (HIV-1RF [3]; concentrations up to 10 μg/mL)?
Answer: did not demonstrate antiviral activity

Question: Which results are given for `CC(C)c1nc(CN(C)C(=O)N[C@H](C(=O)N[C@@H](Cc2ccccc2)C[C@H](O)[C@H](Cc2ccccc2)NC(=O)OCc2cncs2)C(C)C)cs1` [Ritonavir]?
Answer: EC50 (HIV-1RF [1]; [7]): 40 nM; EC50 (HIV-1RF [1]; [8]): 30 nM; EC50 (HIV-1RF [1]; [9]): 70 nM; EC50 (HIV-1RF [1]; [10]): 260 nM; Percent Infectivity of HIV-1 Virions in comparison to virus-alone control (HIV-1 virions; 0.01 μM, added 8 h post-infection): 42.9%; Percent Infectivity of HIV-1 Virions in comparison to virus-alone control (HIV-1 virions; 0.01 μM, added 16 h post-infection): 331.2%; Percent Infectivity of HIV-1 Virions in comparison to virus-alone control (HIV-1 virions; 0.01 μM, added 24 h post-infection): 100.0%; Percent Infectivity of HIV-1 Virions in comparison to virus-alone control (HIV-1 virions; 0.1 μM, added 8 h post-infection): 1.0%; Percent Infectivity of HIV-1 Virions in comparison to virus-alone control (HIV-1 virions; 0.1 μM, added 16 h post-infection): 3.7%; Percent Infectivity of HIV-1 Virions in comparison to virus-alone control (HIV-1 virions; 0.1 μM, added 24 h post-infection): 26.6%; Percent Infectivity of HIV-1 Virions in comparison to virus-alone control (HIV-1 virions; 1 μM, added 8 h post-infection): 0.1%; Percent Infectivity of HIV-1 Virions in comparison to virus-alone control (HIV-1 virions; 1 μM, added 16 h post-infection): 0.1%; Percent Infectivity of HIV-1 Virions in comparison to virus-alone control (HIV-1 virions; 1 μM, added 24 h post-infection): 0.1%; time of addition up to which antiviral activity (reduced p24) was seen (HIV-1RF [2]; 0.1 μM): up to six; time of addition up to which antiviral activity (reduced p24) was seen (HIV-1RF [2]; 1 μM): up to 24 hours post-infection; EC50 (HIV-1RF [3]; exposure 2 h pre-infection): 720 nM; EC50 (HIV-1RF [3]; exposure 8 h pre-infection): 750 nM; EC50 (HIV-1RF [3]; exposure 24 h pre-infection): 680 nM; EC50 values after pre-treatment of cells (HIV-1RF [3]; in words): sub-micromolar

Question: Which EC50 (HIV-1 HT/92/599) does the source give for `COCCOCCOCCOCCOCCOCCOCCOc1ccc(C[C@H](NC(=O)O[C@H]2CO[C@H]3OCC[C@H]32)C(O)CN(CC(C)C)S(=O)(=O)c2ccc(N)cc2)cc1` (some centres unmarked) [mPEG7-O-Darunavir] here?
Answer: 250 ± 27 nM

Question: And the “PBMC TC50 ± SD” value (PBMCs)?
Answer: >200000 nM

Question: What about the “Microsomal Protein Binding Fu ± SD” value [4] of the same molecule?
Answer: 0.84 ± 0.0131

Question: What about the “Plasma Protein Binding Fu ± SD” value (human plasma proteins) of the same molecule?
Answer: 0.314 ± 0.0116

Question: What about the EC50 (HIV-1RF [5]) of the same molecule?
Answer: 47 nM and 76 nM

Question: What about the “CLint ± SEM” value [6] of the same molecule?
Answer: 113 ± 8.87 μL/min/mg protein

Question: And the t1/2 [6]?
Answer: 12.2 min

Question: And the “Efflux ratio (B→A/A→B)” value (Caco-2 cells)?
Answer: 33

Question: What about the “A→B, ×10^−6” value (Caco-2 cells; apical to basolateral) of the same molecule?
Answer: 0.19 cm/s

Source: patent publication US10806794B2, “Protease inhibitors having enhanced features” (priority 2008, dated 2020)
